{"source": "patent US8987293B2", "about": "“Morphinans useful as analgesics” (Phoenix Pharmalabs, Inc., priority 2010, dated 2015)", "key": {"[1]": {"target": "T1, human delta receptor (Homo sapiens, UniProt P41143)", "T1 construct": "expressed in transfected cells; host or cells: CHO cells", "T1 sequence (P41143 whole entry)": "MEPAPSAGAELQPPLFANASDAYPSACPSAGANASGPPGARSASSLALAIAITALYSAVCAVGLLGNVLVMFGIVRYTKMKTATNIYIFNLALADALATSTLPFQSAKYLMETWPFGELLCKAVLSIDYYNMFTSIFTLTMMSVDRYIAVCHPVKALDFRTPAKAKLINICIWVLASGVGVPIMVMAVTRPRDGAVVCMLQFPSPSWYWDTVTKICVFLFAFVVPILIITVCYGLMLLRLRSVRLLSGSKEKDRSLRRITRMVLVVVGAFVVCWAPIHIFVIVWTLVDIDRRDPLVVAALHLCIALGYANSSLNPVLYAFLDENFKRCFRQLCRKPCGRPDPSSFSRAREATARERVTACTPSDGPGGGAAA", "test": "[35S]GTP γS binding functional assay, CHO cell membranes", "assay_type": "biochemical"}, "[2]": {"target": "T1, human delta receptor", "test": "Opioid receptor binding affinity, [3H]Cl-DPDPE, CHO cell membranes"}, "[3]": {"target": "T2, human kappa receptor (Homo sapiens, UniProt P41145)", "T2 construct": "expressed in transfected cells; host or cells: CHO cells", "T2 sequence (P41145 whole entry)": "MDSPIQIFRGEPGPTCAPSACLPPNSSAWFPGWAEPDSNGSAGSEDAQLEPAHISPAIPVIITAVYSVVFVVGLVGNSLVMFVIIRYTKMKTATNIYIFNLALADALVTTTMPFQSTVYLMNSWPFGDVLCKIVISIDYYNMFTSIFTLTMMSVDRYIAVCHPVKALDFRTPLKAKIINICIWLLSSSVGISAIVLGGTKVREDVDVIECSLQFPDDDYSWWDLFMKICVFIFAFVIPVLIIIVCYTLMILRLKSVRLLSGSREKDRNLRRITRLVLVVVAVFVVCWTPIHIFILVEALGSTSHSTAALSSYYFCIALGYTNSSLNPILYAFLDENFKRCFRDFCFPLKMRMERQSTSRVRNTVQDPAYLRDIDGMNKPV", "test": "[35S]GTP γS binding functional assay, CHO cell membranes", "assay_type": "biochemical", "conditions": "1 hr at 25 C"}, "[4]": {"target": "T2, human kappa receptor", "test": "Opioid receptor binding affinity, [3H]U69593, CHO cell membranes"}}, "data": [{"smiles": "C[C@H](C1CC1)N1CC[C@]23CCCC[C@H]2[C@H]1Cc1ccc(O)cc13", "note": "[Compound 5]", "values": [{"measurement": "EC50", "setting": "[1]", "value": "9.01 ± 2.6", "unit": "nM"}, {"measurement": "percent stimulation at the delta receptor", "setting": "[1]; [35S]GTP γS, 1 hr at 25 C", "value": "39.8±3.9", "unit": "%"}, {"measurement": "Ki", "setting": "[2]", "value": "2.47 ± 0.1", "unit": "nM"}, {"measurement": "percent stimulation at the kappa receptor", "setting": "[3]", "value": "41.7±5.0", "unit": "%"}, {"measurement": "Ki", "setting": "[4]", "value": "0.29 ± 0.1", "unit": "nM"}]}]}
